Data taken from PMC12222587, “A2B adenosine receptor-triggered intracellular calcium mobilization: Cell type-dependent involvement of Gi, Gq, Gs proteins and protein kinase C” (Purinergic Signalling, 2025).
Entries after “also recorded” stand apart in the source; their conditions may differ.

Experiments:
A2BAR = molecular target: T1, A2BAR (Homo sapiens, UniProt P29275); experiment: Intracellular calcium mobilization, T24 bladder cancer cells, native A2BAR (NECA); format: cell-based
T1 sequence (P29275 1-332): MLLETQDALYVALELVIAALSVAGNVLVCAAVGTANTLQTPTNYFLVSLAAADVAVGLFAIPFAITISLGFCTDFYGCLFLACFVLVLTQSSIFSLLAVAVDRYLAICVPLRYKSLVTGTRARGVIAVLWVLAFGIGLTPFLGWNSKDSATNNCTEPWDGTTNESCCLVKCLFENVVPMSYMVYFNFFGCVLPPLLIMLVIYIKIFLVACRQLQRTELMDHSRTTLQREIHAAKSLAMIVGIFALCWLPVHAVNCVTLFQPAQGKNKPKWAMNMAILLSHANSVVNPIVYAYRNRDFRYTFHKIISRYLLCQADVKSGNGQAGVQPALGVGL

β2-adrenergic receptor = β2-adrenergic receptor (Homo sapiens, UniProt P07550); experiment: Intracellular calcium mobilization, T24 bladder cancer cells, endogenous β2-adrenergic receptor; format: cell-based
HMC-1 cells = conditions: cited from earlier work
[1] = system: human erythroleukemia cells; conditions: cited from earlier work

Cholera toxin [CTX]
Effect on native A2BAR (NECA)-triggered calcium mobilization (A2BAR): CTX sensitive (5), Variable, depending on cell type^b, c
Effect on formoterol-induced calcium mobilization (β2-adrenergic receptor) (β2-adrenergic receptor): effect larger than it was on the NECA-induced Ca^2+ response; also recorded: CTX sensitive (6)
Sensitivity of NECA-induced Ca2+ increase to toxin (HMC-1 cells): ^b NECA-induced Ca^2+ increase in HMC-1 cells was insensitive to CTX and PTX, Feoktistov et al., 1995 [30]
Sensitivity of NECA-induced Ca2+ increase to toxin [1]: ^c NECA-induced Ca^2+ increase in human erythroleukemia cells was sensitive to CTX, Feoktistov et al., 1994 [31]
